# Assay results from patent US12428389B2, “Diarylamide compound and application thereof” (Sunshine Lake Pharma Co., Ltd., priority 2019, dated 2025).
# Read-outs that look alike come from different tables or passages of the source.
# How the values were obtained:
# human UT-B = target: T1, human UT-B (Homo sapiens, UniProt Q13336); assay: erythrocyte lysis model, human erythrocytes; type: cell-based
# T1 construct: endogenous in cells; host or cells: human erythrocytes
# T1 sequence (Q13336 1-389): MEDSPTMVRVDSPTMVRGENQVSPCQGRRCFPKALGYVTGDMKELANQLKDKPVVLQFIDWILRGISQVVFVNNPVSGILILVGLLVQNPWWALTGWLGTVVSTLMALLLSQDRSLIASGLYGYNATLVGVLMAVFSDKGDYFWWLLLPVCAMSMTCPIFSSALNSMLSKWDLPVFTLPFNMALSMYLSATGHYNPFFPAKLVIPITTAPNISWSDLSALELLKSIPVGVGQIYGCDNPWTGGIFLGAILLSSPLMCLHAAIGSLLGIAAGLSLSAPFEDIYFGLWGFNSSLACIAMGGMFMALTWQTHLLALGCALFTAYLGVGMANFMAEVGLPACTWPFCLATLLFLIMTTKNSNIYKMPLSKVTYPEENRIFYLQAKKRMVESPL
# Description: (§1) Erythrocyte lysis rate was calculated:
# (§2) The formula for calculating the lysis rate percentage of erythrocytes, wherein Atest was the absorbance value of the test well, Aneg was the absorbance value of the negative control well, and Apos was the absorbance value of the positive control well. Erythrocyte lysis rate was calculated by measuring absorption at a wavelength of 710 nm.
# (§3) The erythrocytes of three species of human, rats (SD rats) and mice (C57 mice) were taken, and urea transporter inhibitors were preliminarily screened from the above screening compound library by using the erythrocyte urea transporter inhibitor screening model.
# UT-B [1] = target: T2, UT-B (Rattus norvegicus, UniProt P97689); assay: erythrocyte lysis model, rat erythrocytes; type: cell-based, rats; conditions: concentration when the erythrocyte lysis rate of rats was 50%; read-out: IC50 rats
# T2 construct: endogenous in cells; host or cells: erythrocytes of SD rats
# T2 sequence (P97689 1-384): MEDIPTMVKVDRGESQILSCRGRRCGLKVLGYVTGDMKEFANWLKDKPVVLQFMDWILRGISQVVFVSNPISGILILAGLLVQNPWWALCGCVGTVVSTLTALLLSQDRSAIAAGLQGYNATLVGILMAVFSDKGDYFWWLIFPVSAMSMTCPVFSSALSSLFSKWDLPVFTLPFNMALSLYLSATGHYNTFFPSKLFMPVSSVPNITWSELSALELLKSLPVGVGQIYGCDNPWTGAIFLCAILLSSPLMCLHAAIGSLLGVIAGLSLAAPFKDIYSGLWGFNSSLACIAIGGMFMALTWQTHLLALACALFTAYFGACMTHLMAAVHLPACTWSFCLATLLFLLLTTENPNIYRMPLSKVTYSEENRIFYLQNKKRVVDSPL
# Description: as §1, §2, §3
# UT-B [2] = target: T3, UT-B (Mus musculus, UniProt Q8VHL0); assay: erythrocyte lysis model, mouse erythrocytes; type: cell-based; conditions: concentration when the erythrocyte lysis rate of mice was 50%
# T3 construct: endogenous in cells; host or cells: erythrocytes of C57 mice
# T3 sequence (Q8VHL0 1-384): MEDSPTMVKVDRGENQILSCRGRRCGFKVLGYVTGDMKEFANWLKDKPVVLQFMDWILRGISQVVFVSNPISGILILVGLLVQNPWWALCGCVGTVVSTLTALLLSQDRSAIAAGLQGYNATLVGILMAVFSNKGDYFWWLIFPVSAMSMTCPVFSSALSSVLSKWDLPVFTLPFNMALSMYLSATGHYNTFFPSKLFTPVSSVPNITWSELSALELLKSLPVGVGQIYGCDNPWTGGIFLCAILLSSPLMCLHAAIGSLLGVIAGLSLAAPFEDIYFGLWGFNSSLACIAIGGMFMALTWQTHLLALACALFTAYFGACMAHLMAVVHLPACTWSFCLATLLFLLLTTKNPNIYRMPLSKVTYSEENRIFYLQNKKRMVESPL
# Description: as §1, §2, §3
# [3] = class of the IC50 to human UT-B, read-out: Activity level
# [4] = concentration when the erythrocyte lysis rate of human was 50%, read-out: IC50 human
IC50 (human UT-B; [3]) [nM],IC50 (human UT-B; [4]) [nM],IC50 (UT-B [1]) [nM],IC50 (UT-B [2]) [nM],Compound
< 10000,130,240,520,"CNC(=O)c1cccc(NC(=O)c2ccc(C(C)=O)o2)c1 [Example 78, 3-(5-acetyl-2-furoyl)carbamamide]"
< 10000,2610,1130,2660,"CNC(=O)c1cc(NC(=O)c2ccc([N+](=O)[O-])o2)ccc1O [Example 67, N-(4-hydroxy-3-methylcarbomoylphenyl)-5-nitrofuran-2-carboxamide]"
20000 to 80000,23900,18300,4380,N-(4-fluoro-3-methylcarbomoylphenyl)-5-nitrofuran-2-carboxamide [Example 65]
< 10000,740,200,310,"CN(C)C(=O)c1cccc(NC(=O)c2ccc([N+](=O)[O-])o2)c1 [Example 54, N-(3-(dimethylcarbamoyl)phenyl)-5-nitrofuran-2-carboxamide]"
< 10000,6610,1300,27200,"CN(C)CCC(=O)Nc1ccc(NC(=O)c2ccc([N+](=O)[O-])o2)cc1 [Example 73, N-(4-(3-dimethylamino)propionylaminophenyl)-5-nitrofuran-2-carboxamide]"
< 10000,3680,210,740,"CN(C)CCNC(=O)c1cccc(NC(=O)c2ccc([N+](=O)[O-])o2)c1 [Example 60, N-(3-((2-dimethylaminoethyl)carbamoyl)phenyl)-5-nitrofuran-2-carboxamide]"
< 10000,370,4810,6390,ethyl 2-acetamido-5-(5-nitrofuran-2-carboxamide) benzoate [Example 75]
< 10000,5300,8370,10200,"O=C(Nc1ccc(CCO)cc1)c1ccc([N+](=O)[O-])o1 [Example 50, N-(4-(2-hydroxyethyl)phenyl)-5-nitrofuran-2-carboxamide]"
< 10000,1420,90,500,"CC(C)CNC(=O)c1cccc(NC(=O)c2ccc([N+](=O)[O-])o2)c1 [Example 57, N-(3-(isobutylcarbamoyl)phenyl)-5-nitrofuran-2-carboxamide]"
< 10000,470,450,2300,"CCOC(=O)c1cccc(NC(=O)c2ccc([N+](=O)[O-])o2)c1 [Example 42, Ethyl 3-(5-nitrofuran-2-carboxamido)benzoate]"
< 10000,23,15,290,"CNC(=O)c1cccc(NC(=O)c2ccc([N+](=O)[O-])o2)c1 [Example 53, N-(3-(methylcarbamoyl)phenyl)-5-nitrofuran-2-carboxamide]"
< 10000,1080,320,2790,"CNC(=O)c1cc(C)cc(NC(=O)c2ccc([N+](=O)[O-])o2)c1 [Example 64, N-(5-methyl-3-methylcarbamoylphenyl)-5-nitrofuran-2-carboxamide]"

# Continued, compound first:
Compound,IC50 (human UT-B; [3]) [nM],IC50 (human UT-B; [4]) [nM],IC50 (UT-B [1]) [nM],IC50 (UT-B [2]) [nM]
"O=C(Nc1cccc(Cl)c1)c1ccc([N+](=O)[O-])o1 [Example 38, N-(3-chlorophenyl)-5-nitrofuran-2-carboxamide]",< 10000,2910,1050,5810
"Nc1cccc(NC(=O)c2ccc([N+](=O)[O-])o2)c1 [Example 34, N-(3-aminophenyl)-5-nitrofuran-2-carboxamide]",< 10000,3580,1800,10500
"O=C(Nc1ccccc1F)c1ccc([N+](=O)[O-])o1 [Example 35, N-(2-fluorophenyl)-5-nitrofuran-2-carboxamide]",< 10000,3620,3800,43800
"O=C(Nc1cccc(O)c1)c1ccc([N+](=O)[O-])o1 [Example 32, N-(3-hydroxyphenyl)-5-nitrofuran-2-carboxamide]",< 10000,910,670,2390
"COc1cccc(NC(=O)c2ccc([N+](=O)[O-])o2)c1 [Example 30, N-(3-methoxyphenyl)-5-nitrofuran-2-carboxamide]",< 10000,2270,1110,9650
"O=C(Nc1ccc2ncccc2c1)c1ccc([N+](=O)[O-])o1 [Example 16, N-(quinolin-6-yl)-5-nitrofuran-2-carboxamide]",< 10000,1640,5490,5080
"Cc1cccc(NC(=O)c2ccc([N+](=O)[O-])o2)c1 [Example 28, N-(3-methylphenyl)-5-nitrofuran-2-carboxamide]",< 10000,3660,3910,30500
"Cn1ccc(NC(=O)c2ccc([N+](=O)[O-])o2)n1 [Example 21, N-(1-methyl-1H-pyrazol-3-yl)-5-nitrofuran-2-carboxamide]",< 10000,2210,1100,8510
